# How the values were obtained:
# Experiment in all cases: NCI-60 SRB screen
# Format in all cases: cell-based
# CCRF-CEM = tested on: CCRF-CEM
# From the text: (§1) Supplementary Figure l egend
# (§2) 10μ M of CTR-20 was used to examine the drug’s efficac y against the NC I-60 cancer cell li nes including: six leukemia cell lines, nine non- small cell lung cancer cell lines, seven color ect al cancer cell lines, six CNS cancer cell lines, nine melanoma cell lines, seven ovari an can cer cell lines, seven ren al can cer cell lines, two prostate cancer cell lines and six breast cancer cell lines. The scr eenin g was car r ied out b y the US National Cancer Institute (NC I) us i n g a sulforhodamine B (SRB) colorimetric assay. […]
# (§3) out by the NC I using five different doses of CTR -20.
# DU-145 = tested on: DU-145
# From the text: as §1, §2, §3
# HCC-2998 = tested on: HCC-2998
# From the text: as §1, §2, §3
# K-562 = tested on: K-562
# From the text: as §1, §2, §3
# MALME-3M = tested on: MALME-3M
# From the text: as §1, §2, §3
# MDA-MB-435 = tested on: MDA-MB-435
# From the text: as §1, §2, §3
# NCI-H226 = tested on: NCI-H226
# From the text: as §1, §2, §3
# SK-MEL-5 = tested on: SK-MEL-5
# From the text: as §1, §2, §3
# SNB-19 = tested on: SNB-19
# From the text: as §1, §2, §3
# U251 = tested on: U251
# From the text: as §1, §2, §3
# UACC-257 = tested on: UACC-257
# From the text: as §1, §2, §3
# UACC-62 = tested on: UACC-62
# From the text: as §1, §2, §3
# [1] = Homo sapiens, read-out: LC50 (the source's name)
compound,measurement,setting,value
"COc1ccc2[nH]c(=O)c(/C=C/C(=O)c3ccccc3OC)cc2c1 [CTR-20, (E)-6-Methoxy-3-(3-(2-methoxyphenyl)-3-oxoprop-1-enyl) quinolin-2(1H)-one]",Log10GI50,CCRF-CEM,-6.41 Molar
same,Log10LC50,CCRF-CEM,> -4.00 Molar
same,Log10TGI,CCRF-CEM,> -4.00 Molar
same,TGI,CCRF-CEM,> 1.00E-4 Molar
same,Growth Percent,CCRF-CEM; 1.00E-5 Molar,7.53%
same,GI50,CCRF-CEM; Homo sapiens,0.392 µM
same,LC50 (concentration causing 50% net cell kill),CCRF-CEM; Homo sapiens,> 100 µM
same,Percent Growth,CCRF-CEM; Log10 Concentration -4.0,1%
same,Percent Growth,CCRF-CEM; Log10 Concentration -5.0,6%
same,Percent Growth,CCRF-CEM; Log10 Concentration -6.0,19%
same,Percent Growth,CCRF-CEM; Log10 Concentration -7.0,95%
same,Percent Growth,CCRF-CEM; Log10 Concentration -8.0,99%
same,Log10GI50,DU-145,-6.28 Molar
same,Log10LC50,DU-145,-5.26 Molar
same,Log10TGI,DU-145,-5.71 Molar
same,TGI,DU-145,1.96E-6 Molar
same,Growth Percent,DU-145; 1.00E-5 Molar,10.76%
same,GI50,DU-145; Homo sapiens,0.529 µM
same,CC50,DU-145; [1],5.47 µM
same,Percent Growth,DU-145; Log10 Concentration -4.0,-93%
same,Percent Growth,DU-145; Log10 Concentration -5.0,-79%
same,Percent Growth,DU-145; Log10 Concentration -6.0,33%
same,Percent Growth,DU-145; Log10 Concentration -7.0,95%
same,Percent Growth,DU-145; Log10 Concentration -8.0,98%
same,Log10GI50,HCC-2998,-5.80 Molar
same,Log10LC50,HCC-2998,-5.23 Molar
same,Log10TGI,HCC-2998,-5.52 Molar
same,TGI,HCC-2998,3.03E-6 Molar
same,Growth Percent,HCC-2998; 1.00E-5 Molar,23.11%
same,GI50,HCC-2998; Homo sapiens,1.57 µM
same,CC50,HCC-2998; [1],5.85 µM
same,Percent Growth,HCC-2998; Log10 Concentration -4.0,-91%
same,Percent Growth,HCC-2998; Log10 Concentration -5.0,-91%
same,Percent Growth,HCC-2998; Log10 Concentration -6.0,84%
same,Percent Growth,HCC-2998; Log10 Concentration -7.0,97%
same,Percent Growth,HCC-2998; Log10 Concentration -8.0,99%
same,Log10GI50,K-562,-6.79 Molar
same,Log10LC50,K-562,> -4.00 Molar
same,Log10TGI,K-562,> -4.00 Molar
same,TGI,K-562,> 1.00E-4 Molar
same,Growth Percent,K-562; 1.00E-5 Molar,4.24%
same,GI50,"K-562; Homo sapiens, K562",0.162 µM
same,CC50,"K-562; Homo sapiens, K562, read-out: LC50 (the source's name)",> 100 µM
same,Percent Growth,K-562; Log10 Concentration -4.0,4%
same,Percent Growth,K-562; Log10 Concentration -5.0,6%
same,Percent Growth,K-562; Log10 Concentration -6.0,11%
same,Percent Growth,K-562; Log10 Concentration -7.0,61%
same,Percent Growth,K-562; Log10 Concentration -8.0,101%
same,GI50,"MALME-3M; Homo sapiens, Malme-3M",0.766 µM
same,CC50,"MALME-3M; Homo sapiens, Malme-3M, read-out: LC50 (the source's name)",30.3 µM
same,Log10GI50,MALME-3M; MALME-3M,-6.12 Molar
same,Log10LC50,MALME-3M; MALME-3M,-4.52 Molar
same,Log10TGI,MALME-3M; MALME-3M,-5.09 Molar
same,TGI,MALME-3M; MALME-3M,8.09E-6 Molar
same,Growth Percent,"MALME-3M; MALME-3M, 1.00E-5 Molar",38.55%
same,Percent Growth,"MALME-3M; MALME-3M, Log10 Concentration -4.0",-99%
same,Percent Growth,"MALME-3M; MALME-3M, Log10 Concentration -5.0",-5%
same,Percent Growth,"MALME-3M; MALME-3M, Log10 Concentration -6.0",46%
same,Percent Growth,"MALME-3M; MALME-3M, Log10 Concentration -7.0",81%
same,Percent Growth,"MALME-3M; MALME-3M, Log10 Concentration -8.0",92%
same,Log10GI50,MDA-MB-435,-7.25 Molar
same,Log10LC50,MDA-MB-435,-4.66 Molar
same,Log10TGI,MDA-MB-435,-6.56 Molar
same,TGI,MDA-MB-435,2.75E-7 Molar
same,Growth Percent,MDA-MB-435; 1.00E-5 Molar,-10.05%
same,GI50,MDA-MB-435; Homo sapiens,0.0564 µM
same,CC50,MDA-MB-435; [1],21.9 µM
same,Percent Growth,MDA-MB-435; Log10 Concentration -4.0,-97%
same,Percent Growth,MDA-MB-435; Log10 Concentration -5.0,-26%
same,Percent Growth,MDA-MB-435; Log10 Concentration -6.0,-46%
same,Percent Growth,MDA-MB-435; Log10 Concentration -7.0,36%
same,Percent Growth,MDA-MB-435; Log10 Concentration -8.0,92%
same,Log10GI50,NCI-H226,-5.48 Molar
same,Log10LC50,NCI-H226,> -4.00 Molar
same,Log10TGI,NCI-H226,-4.73 Molar
same,TGI,NCI-H226,1.85E-5 Molar
same,Growth Percent,NCI-H226; 1.00E-5 Molar,38.93%
same,GI50,NCI-H226; Homo sapiens,3.34 µM
same,CC50,NCI-H226; [1],> 100 µM
same,Percent Growth,NCI-H226; Log10 Concentration -4.0,-47%
same,Percent Growth,NCI-H226; Log10 Concentration -5.0,17%
same,Percent Growth,NCI-H226; Log10 Concentration -6.0,86%
same,Percent Growth,NCI-H226; Log10 Concentration -7.0,99%
same,Percent Growth,NCI-H226; Log10 Concentration -8.0,96%
same,Log10GI50,SK-MEL-5,-6.14 Molar
same,Log10LC50,SK-MEL-5,-5.31 Molar
same,Log10TGI,SK-MEL-5,-5.68 Molar
same,TGI,SK-MEL-5,2.08E-6 Molar
same,Growth Percent,SK-MEL-5; 1.00E-5 Molar,25.21%
same,GI50,SK-MEL-5; Homo sapiens,0.728 µM
same,CC50,SK-MEL-5; [1],4.93 µM
same,Percent Growth,SK-MEL-5; Log10 Concentration -4.0,-98%
same,Percent Growth,SK-MEL-5; Log10 Concentration -5.0,-91%
same,Percent Growth,SK-MEL-5; Log10 Concentration -6.0,43%
same,Percent Growth,SK-MEL-5; Log10 Concentration -7.0,96%
same,Percent Growth,SK-MEL-5; Log10 Concentration -8.0,101%
same,Log10GI50,SNB-19,-6.44 Molar
same,Log10LC50,SNB-19,-5.05 Molar
same,Log10TGI,SNB-19,-5.75 Molar
same,TGI,SNB-19,1.79E-6 Molar
same,Growth Percent,SNB-19; 1.00E-5 Molar,17.04%
same,GI50,SNB-19; Homo sapiens,0.362 µM
same,CC50,SNB-19; [1],8.88 µM
same,Percent Growth,SNB-19; Log10 Concentration -4.0,-89%
same,Percent Growth,SNB-19; Log10 Concentration -5.0,-54%
same,Percent Growth,SNB-19; Log10 Concentration -6.0,18%
same,Percent Growth,SNB-19; Log10 Concentration -7.0,90%
same,Percent Growth,SNB-19; Log10 Concentration -8.0,98%
same,Log10GI50,U251,-6.28 Molar
same,Log10LC50,U251,-5.38 Molar
same,Log10TGI,U251,-5.77 Molar
same,TGI,U251,1.70E-6 Molar
same,Growth Percent,U251; 1.00E-5 Molar,5.14%
same,GI50,"U251; Homo sapiens, U-251",0.521 µM
same,LC50,"U251; Homo sapiens, U-251",4.21 µM
same,Percent Growth,U251; Log10 Concentration -4.0,-99%
same,Percent Growth,U251; Log10 Concentration -5.0,-98%
same,Percent Growth,U251; Log10 Concentration -6.0,29%
same,Percent Growth,U251; Log10 Concentration -7.0,103%
same,Percent Growth,U251; Log10 Concentration -8.0,102%
same,Log10GI50,UACC-257,-5.86 Molar
same,Log10LC50,UACC-257,-5.17 Molar
same,Log10TGI,UACC-257,-5.52 Molar
same,TGI,UACC-257,3.05E-6 Molar
same,Growth Percent,UACC-257; 1.00E-5 Molar,37.62%
same,GI50,UACC-257; Homo sapiens,1.38 µM
same,CC50,UACC-257; [1],6.75 µM
same,Percent Growth,UACC-257; Log10 Concentration -4.0,-100%
same,Percent Growth,UACC-257; Log10 Concentration -5.0,-75%
same,Percent Growth,UACC-257; Log10 Concentration -6.0,70%
same,Percent Growth,UACC-257; Log10 Concentration -7.0,101%
same,Percent Growth,UACC-257; Log10 Concentration -8.0,98%
same,Log10GI50,UACC-62,-6.32 Molar
same,Log10LC50,UACC-62,-4.75 Molar
same,Log10TGI,UACC-62,-5.53 Molar
same,TGI,UACC-62,2.97E-6 Molar
same,Growth Percent,UACC-62; 1.00E-5 Molar,25.73%
same,GI50,UACC-62; Homo sapiens,0.478 µM
same,CC50,UACC-62; [1],17.9 µM
same,Percent Growth,UACC-62; Log10 Concentration -4.0,-95%
same,Percent Growth,UACC-62; Log10 Concentration -5.0,-35%
same,Percent Growth,UACC-62; Log10 Concentration -6.0,31%
same,Percent Growth,UACC-62; Log10 Concentration -7.0,90%
same,Percent Growth,UACC-62; Log10 Concentration -8.0,94%
